Experimental data: patent US12324769B1, “Double-network versatile hydrogel with antibacterial and drug sequential release capabilities” (Eye Institute of Shandong First Medical University, priority 2023, dated 2025)

Tests used:
Raw264.7 cells = test: macrophage cytoskeleton staining after LPS/IFN-γ induced M1 polarization; assay type: cell-based; conditions: M1-induced Raw264.7, cytoskeleton staining
Experimental: The anti-inflammatory properties of SQPV hydrogel prepared in Embodiment 1, SQP hydrogel prepared in Comparative embodiment 1 and SQ hydrogel prepared in Comparative embodiment 2 are investigated. […] Therefore, regulating inflammatory response has become the key focus of developing ideal corneal substitutes. […] In this present disclosure, Raw264.7 cells are inoculated on a 6-well plate for 24 h, and then stimulated with LPS (100 nanograms per milliliter (ng/mL)) and interferon gamma (IFN-γ) (20 ng/mL) for 24 h to induce M1 polarization. Then, fresh hydrogel leaching solution is added, and after 24 h, the cytoskeleton is stained with CLSM to observe the morphological changes of macrophages.

[1] = cumulative release of PDRN and verteporfin in PBS at 37° C.; assay type: physicochemical; conditions: from SQPV hydrogel

Substance | macrophage polarization (Raw264.7 cells) | time until almost all encapsulated PDRN is released [1] | cumulative release of verteporfin ([1]; after 28 days of incubation)
polydeoxyribonucleotide [PDRN] | promotes macrophages to have M1 to M2 transformation | ≤ 7 days | –
verteporfin [reference compound] | – | – | 72%
